# Patent US20010041365A1, “Methods for monitoring alcohol consumption” (priority 2000, published 2001)
# Read-outs that look alike come from different tables or passages of the source. Marks after values point to notes of the source that are not given here.
# Experiments:
# [1] = Serum FAEE and blood ethanol over time in men and women after alcohol consumption over 90 minutes (Example 1); format: in vivo, human
# Description: Seven volunteers (four men and […]) were given measured amounts of 100-proof vodka mixed with fruit juice in a 1:3 ratio which was weight-adjusted to increase blood ethanol levels to approximately 120-147 mg/dL. The beverage was divided in 9 equal aliquots which the subjects drank over a 90 minute period, 1 aliquot every 10 minutes. This alcohol intake represented consumption to the legal limit of intoxication. Once the drinking commenced, blood was collected from a catheter every 15 min for the first 2.5 h. Between 2.5 and 4.0 h, samples were collected every 30 min; and from 4 to 8 h, they were collected every 60 min. A final blood sample was also collected 24 h after the ethanol ingestion commenced. Blood was collected from a peripheral venous catheter into vacuum tubes without anti-coagulant (for serum FAEE) and into tubes with the anti-coagulant sodium citrate (for plasma ethanol). (Soderberg, et al., Clinical Chemistry, 45(12):2183-2190, 1999; Doyle, K. M. et al., JAMA, 276:1152-1156, 1996)
# All samples were extracted with acetone/hexane (2/8, v/v) and dried under nitrogen vapors to a volume of approximately 300 μL. […] FAEEs were then quantitated by gas chromatography-mass spectrometry (GC-MS) using a Hewlett-Packard 5890 Series II gas chromatograph equipped with a Supelcowax SP-2330 capillary column coupled to an HP-5971 mass spectrometer.
# [2] = Post-mortem liver and adipose FAEE as markers of pre-mortem ethanol intake (Example 9); format: in vivo; details: autopsy tissue
# Excerpt: This study was approved by both the Massachusetts Medical Examiner Office Committee and the Massachusetts General Hospital Pathology Quality Assurance Committee. Twenty-four sets of samples were collected at the Massachusetts State Medical Examiner's Office and 7 sets of samples were obtained from the Pathology Department of Massachusetts General Hospital. Medical history, history of ethanol ingestion (obtained from the organ bank, treating physician, health insurance records, and/or relatives), and the blood ethanol level at autopsy were obtained in each case. Only cases with available blood ethanol levels were included in this study. Individuals who had detectable blood ethanol levels at the time of autopsy, with or without a history of ethanol abuse, were grouped as “positive for ethanol.” Individuals categorized in the chronic alcoholic or social drinker groups met all of the following criteria a) no known alcohol intake immediately prior to death; b) undetectable blood ethanol level in blood samples collected at autopsy; and c) no suspicious incident at the time of death. In addition, chronic alcoholics were diagnosed according to the Diagnostic and Statistical Manual-IV.
# Samples of liver and adipose tissue were collected at autopsy from randomly selected cases and FAEE were isolated and quantitated from these organs as mass per gram wet weight. […]
# [3] = Distribution of plasma FAEE species in chronic alcoholics vs. acutely intoxicated individuals (Example 6); format: in vivo, human; details: for proportion of total FAEE, acute drinkers relative to chronic drinkers: plasma
# Excerpt: Plasma was obtained from chronic alcoholics (i.e. chronic drinkers) at the time of admission to a detoxification program. Acutely intoxicated control subjects used for comparison in this study were normal, healthy volunteers who also participated in the study concerning gender and alcoholic beverage type (see above).
# [4] = Plasma FAEE levels in acute (binge) and chronic drinkers at peak ethanol levels and 24 hours after peak (Example 7); format: in vivo, human; details: for average proportion of total FAEE which is ethyl oleate: peak or near peak ethanol levels; for concentration at 24 h: human, plasma, oral; for Proportion of Ethyl Oleate in Binge Drinkers (Mean +/− SEM) / Proportion of Ethyl Oleate in Binge Drinkers (range) / Proportion of Ethyl Oleate in Chronic Drinkers (Mean +/− SEM) / Proportion of Ethyl Oleate in Chronic Drinkers (range): of total FAEE in plasma; for mean difference between proportion of total FAEE which is ethyl stearate and proportion which is ethyl oleate: 24 hours after alcohol consumption
# Description: Thus, as an example, gas chromatography either alone or in combination with mass spectrometry and/or an initial step of solid phase extraction can be used to determine total and/or individual fatty acid ethyl ester concentrations. […] If the sample has been previously harvested and frozen, it is thawed out and a 1 mL aliquot is removed for analysis. […] In order to determine and quantitate FAEE content, an internal standard of 1 nmol of ethyl heptadecanoate (ethyl 17:0) is added to each sample. Samples are extracted with acetone hexane (2:8, by volume) and dried under nitrogen vapors to a volume of approximately 300 μL. FAEEs are isolated by solid phase extraction using Bond Elut-LRC aminopropyl columns. Columns are pre-washed with dichloromethane followed by hexane; the sample is then applied to the column and eluted by successive washes of hexane and dichloromethane. Combined eluates are concentrated, and FAEEs are then quantified by GC-MS using a Hewlett Packard 5890 Series II gas chromatograph equipped with a Supelcowax SP-2330 capillary column coupled to an HP-5971 mass spectrometer. The injector and detector are maintained at 260° C. and 280° C., respectively. The oven program is initially maintained at 130° C. for 2 minutes then ramped to 160° C. at 5° C./min, ramped again at 2° C./min to 180° C., held for 7 min, finally, ramped to 230° C. at 15° C/min and maintained for 2 min. Carrier gas flow rate is maintained at a constant 0.8 mL/min throughout. Single-ion monitoring is performed, quantifying appropriate base ions for individual FAEE species [i.e., ions m/z 67, 88, and 101 for ethyl palmitate (E16:0), ethyl heptadecanoate (E17:0), ethyl stearate (E18:0), ethyl oleate (E18:1), and ethyl linoleate (E18.2); and ions m/z 79 and 91 for ethyl arachidonate (E20:4), ethyl eicosapentaenoate (E20:5), and ethyl docosahexaenoate (E22:6)]. FAEEs are quantitated by interpolation of the slope generated from individually prepared calibration curves comparing areas of varying concentrations of E16:0-E22:6 to fixed concentrations of the internal standard (E17:0). Mass relationships are obtained for each FAEE using its individual calibration curve. Total FAEE mass is determined by the addition of masses of individual FAEEs (E16:0-E22:6).
# A subset of human subjects presenting at the Massachusetts General Hospital with apparent alcohol related symptoms were entered into this study. Blood was collected from such subjects immediately at the time of presentation, which was assumed to be at peak or near peak ethanol levels, and again 24 hours after presentation. A medical history taken from each subject was used to categorize the subject as a chronic alcoholic or an acute (i.e., binge) drinker. Blood samples were processed, as described herein, to determine the absolute levels of ethyl palmitate, ethyl oleate and total FAEE in plasma.
# [5] = binge drinkers, 24 hours after peak ethanol levels
# [6] = a day after peak or near peak alcohol levels
structure (smiles),measurement,setting,value
CCO [ethanol],time at which blood ethanol decreased to initial levels,[1]; after the beginning of alcohol intake,about 500 minutes
same,maximum level of blood ethanol,[1]; both men and women,approximately 130 mg/dL
CCCCC/C=C\C/C=C\C/C=C\C/C=C\CCCC(=O)OCC [ethyl arachidonate],"level in liver and adipose, individuals with detectable blood ethanol at autopsy compared with chronic alcoholics and social drinkers",[2],markedly higher
CCCCCCCC/C=C\CCCCCCCC(=O)OCC [ethyl oleate],percent of total FAEE in plasma,[3]; acute drinkers,about 30%
same,percent of total FAEE in plasma,"[3]; chronic drinkers, at admission to detoxification program",~75%
same,Concentration of Ethyl Oleate in Binge Drinkers (Mean +/− SEM),[4]; 24 hours after peak,(14 ± 8) pmol/mL
same,Concentration of Ethyl Oleate in Chronic Drinkers (Mean +/− SEM),[4]; 24 hours after peak,(2714 ± 1821) pmol/mL
same,proportion of total FAEE which is ethyl oleate,[4]; [5],10%
same,average proportion of total FAEE which is ethyl oleate,[4]; binge drinkers,32%
same,proportion of total FAEE which is ethyl oleate,"[4]; chronic drinkers, 24 hours after peak ethanol levels",71%
same,average proportion of total FAEE which is ethyl oleate,[4]; chronic drinkers,28%
same,concentration at 24 h,"[4]; 24 hours after peak ethanol levels, read-out: concentration of ethyl oleate in the majority of binge drinkers (9 out of 13)",< 1 nM
same,concentration at 24 h,"[4]; 24 hours after peak, read-out: Concentration of Ethyl Oleate in Binge Drinkers (range)",0 to 80 nM
same,concentration at 24 h,"[4]; 24 hours after peak, read-out: Concentration of Ethyl Oleate in Chronic Drinkers (range)",120 to 28100 nM
same,Proportion of Ethyl Oleate in Binge Drinkers (Mean +/− SEM),[4]; 24 hours after peak,(0.09 +/− 0.04)
same,Proportion of Ethyl Oleate in Binge Drinkers (range),[4]; 24 hours after peak,0.01-0.46
same,Proportion of Ethyl Oleate in Chronic Drinkers (Mean +/− SEM),[4]; 24 hours after peak,(0.71 +/− 0.02)
same,Proportion of Ethyl Oleate in Chronic Drinkers (range),[4]; 24 hours after peak,0.58-0.82
same,Proportion of Ethyl Oleate in Binge Drinkers (Mean +/− SEM),[4]; peak or near peak ethanol,(0.28 +/− 0.02)
same,Proportion of Ethyl Oleate in Binge Drinkers (range),[4]; peak or near peak ethanol,0.01-0.44
same,Proportion of Ethyl Oleate in Chronic Drinkers (Mean +/− SEM),[4]; peak or near peak ethanol,(0.32 +/− 0.02)
same,Proportion of Ethyl Oleate in Chronic Drinkers (range),[4]; peak or near peak ethanol,0.16-0.46
same,Concentration of Ethyl Oleate in Binge Drinkers (Mean +/− SEM),[4]; peak or near peak ethanol,(557 ± 82) pmol/mL
same,Concentration of Ethyl Oleate in Binge Drinkers (range),[4]; peak or near peak ethanol,184 to 1049 pmol/mL
same,Concentration of Ethyl Oleate in Chronic Drinkers (Mean +/− SEM),[4]; peak or near peak ethanol,(2817 +/− 780) pmol/mL
same,Concentration of Ethyl Oleate in Chronic Drinkers (range),[4]; peak or near peak ethanol,96 to 16011 pmol/mL
CCCCCCCCCCCCCCCC(=O)OCC [ethyl palmitate],"proportion of total FAEE, acute drinkers relative to chronic drinkers",[3],almost three times higher
same,Ethyl Palmitate to Ethyl Oleate Ratio in Chronic Drinkers (Mean +/− SEM),[4]; 24 hours after peak,(0.41 +/− 0.03)
same,Ethyl Palmitate to Ethyl Oleate Ratio in Chronic Drinkers (range),[4]; 24 hours after peak,0.22-0.73
same,Ethyl Palmitate to Ethyl Oleate Ratio in Binge Drinkers (Mean +/− SEM),"[4]; 24 hours after peak, mean calculated using a value of 100 where the ratio was ∞",(69.8 +/− 13.1)*
same,P/O ratio of all chronic drinkers,[4]; [6],less than 1.0
same,P/O ratio of most binge drinkers,[4]; [6],∞
same,mean proportion of total FAEE which is ethyl palmitate,[4]; [5],80%
same,mean proportion of total FAEE which is ethyl palmitate,"[4]; binge drinkers, peak or near peak alcohol levels",49%
same,mean proportion of total FAEE which is ethyl palmitate,"[4]; chronic alcoholics, 24 hours after peak ethanol levels",29%
same,mean proportion of total FAEE which is ethyl palmitate,"[4]; chronic alcoholics, peak or near peak alcohol levels",38%
same,Ethyl Palmitate to Ethyl Oleate Ratio in Binge Drinkers (Mean +/− SEM),[4]; peak or near peak,(6.28 +/− 5.0)
same,Ethyl Palmitate to Ethyl Oleate Ratio in Binge Drinkers (range),[4]; peak or near peak,0.96-70.65
same,Ethyl Palmitate to Ethyl Oleate Ratio in Chronic Drinkers (Mean +/− SEM),[4]; peak or near peak,(1.27 +/− 0.12)
same,Ethyl Palmitate to Ethyl Oleate Ratio in Chronic Drinkers (range),[4]; peak or near peak,0.53-3.49
CCCCCCCCCCCCCCCCCC(=O)OCC [ethyl stearate],"proportion of total FAEE, acute drinkers relative to chronic drinkers",[3],~15 fold
same,mean difference between proportion of total FAEE which is ethyl stearate and proportion which is ethyl oleate,[4]; binge drinkers,about 10%
same,mean difference between proportion of total FAEE which is ethyl stearate and proportion which is ethyl oleate,[4]; chronic alcoholics,roughly 70%
